Laboratory results: paper PMC11801715, “Activating PKC-ε induces HIV expression with improved tolerability” (PLOS Pathogens, 2025)

Columns and labels:
[1] = system: CD4+ T cells from ART-suppressed people with HIV; experiment: Cell viability (Cell Titer Glo); format: cell-based, human; settings: 72 hours, doses that activated HIV RNA
Method: Supplementary file ppat.1012874.s011.png: S8 Fig Effect of C-233 on cell viability. CD4^+ T cells from ART-suppressed people with HIV were treated with the indicated C-233 concentrations for 72 hours. Cell viability was assessed using Promega Cell Titer Glo according to manufacturer’s instructions. Bars indicate the means and lines indicate standard deviation from 4 donors, each tested with 8 replicates. (PNG)

[2] = system: cellular p24 in CD4+ T cells; experiment: Ex vivo HIV-Flow assay in CD4+ T cells; format: cell-based, HIV-1; settings: 500 nM in HIV-Flow, 72 hours
Method: Isolated CD4^+ T cells from ART-suppressed people with HIV were cultured in RPMI medium containing 10% FBS, 100 nM efavirenz, and 1 μM tenofovir alafenamide at 2 million cells per mL. These cells were subsequently stimulated with DMSO (vehicle control), 500 nM PKC agonist C-233, or 162 nM PMA and 1 µg/mL ionomycin. The cells were cultured at 37°C, 5% CO2 for 3 days. After 3 days, the cells were washed with PBS, stained with Live/Dead Fixable Aqua for 25 minutes at 4°C, followed by 2% FBS in PBS wash. Cells were then fixed and permeabilized in FoxP3 Fix/Perm buffer (E-Bioscience, catalog 005523) for 45 minutes at 4°C, followed by FoxP3 Perm buffer wash. The samples were stained with 2 different anti-p24 antibodies, (KC57-PE/ Beckman Coulter, 6604667, and a28B7-APC Medimabs, MM-0289-APC) diluted 1:1000 in FoxP3 Perm buffer for 45 minutes at 4°C, washed with FoxP3 Perm buffer, and resuspended in PBS. The samples were run on the BD LSR Fortessa II flow cytometer. The data were analyzed using FlowJo version 10.7.1.
Supplementary file ppat.1012874.s012.png: S9 Fig C-233 induces HIV activation in CD4^+ T cells from ART-suppressed people with HIV. […]

[3] = Plasma PK in rhesus macaques; format: in vivo, rhesus macaque; settings: 0.03, 0.1, 0.3, and 1 mg/kg, slow IV infusion
Method: Male rhesus macaque monkeys (young adult to adult) were sourced from the Covance stock colony for conduct of in vivo studies at Covance Laboratories Inc. (Madison, Wisconsin, USA). Monkeys were administered a single dose of vehicle control (n = 3), 0.03, 0.1, 0.3, or 1 mg/kg of C-232A (n = 1) by intravenous infusion over 30 minutes using a sentinel approach. An additional 2 male monkeys were administered 0.3 mg/kg C232A after it was determined that this was the maximum tolerated dose level. Blood samples were collected through 24 hours postdose. Samples for PK (for measurement of C-232A concentration) and cytokine analysis were processed to plasma and shipped to Gilead Sciences. Activation of CD4^+ T cells was assessed by measuring CD69 expression levels in whole blood by flow cytometry (Covance Laboratories). Samples for clinical pathology were analyzed at Covance Laboratories for hematology, coagulation, and clinical chemistry panels. […] Tissues were then evaluated independently (Experimental Pathology Laboratories, Inc).
Rat and rhesus plasma samples (20 µL aliquot of each) were treated with 100 µL acetonitrile containing a generic internal small-molecule standard. […] The descriptive PK parameters were analyzed using noncompartmental analysis with Phoenix WinNonlin software (version 8.2, Certara USA, Inc.). […]

PKC-θ = PKC-θ (Homo sapiens, UniProt Q04759); experiment: Cell fractionation and western blotting in CD4+ T cells; format: cell-based; settings: 1 hour
PKC-θ, sequence (Q04759 whole entry): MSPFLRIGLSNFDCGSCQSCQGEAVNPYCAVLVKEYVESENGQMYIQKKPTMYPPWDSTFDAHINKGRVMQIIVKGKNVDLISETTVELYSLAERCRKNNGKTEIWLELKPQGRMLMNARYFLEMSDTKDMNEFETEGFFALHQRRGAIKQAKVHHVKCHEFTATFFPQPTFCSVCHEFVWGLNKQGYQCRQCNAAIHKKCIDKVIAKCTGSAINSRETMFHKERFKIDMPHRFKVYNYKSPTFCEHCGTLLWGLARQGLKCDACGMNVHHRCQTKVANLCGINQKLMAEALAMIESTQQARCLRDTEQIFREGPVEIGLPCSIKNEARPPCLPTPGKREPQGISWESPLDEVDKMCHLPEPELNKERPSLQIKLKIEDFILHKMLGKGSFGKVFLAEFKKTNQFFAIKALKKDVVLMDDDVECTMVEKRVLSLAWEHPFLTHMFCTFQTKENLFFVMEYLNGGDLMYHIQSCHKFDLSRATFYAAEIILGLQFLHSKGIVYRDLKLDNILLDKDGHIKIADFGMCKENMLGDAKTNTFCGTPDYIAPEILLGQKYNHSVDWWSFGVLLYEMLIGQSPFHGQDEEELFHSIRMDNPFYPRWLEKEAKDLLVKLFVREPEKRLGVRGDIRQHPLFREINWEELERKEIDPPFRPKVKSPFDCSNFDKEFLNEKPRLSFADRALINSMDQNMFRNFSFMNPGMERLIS
Method: (§1) CD4^+ T cells treated with C-232A for 1 hour in a concentration-dependent manner were separated into cytoplasmic and membrane protein fractions using a cell fractionation kit (Cell Signaling Technology, catalog 9038) and protein concentrations quantified using a Pierce BCA assay (Thermo Fisher Scientific, catalog 23227). 4–6 μg of fractionated total protein lysate was fractionated on SDS-PAGE gel using Peggy Sue (Protein Simple). The resulting area under the curve was normalized against β-actin.
(§2) (A) Western blot of PKC isoforms θ, α, β2, and β1 in cytoplasmic and membrane fractions of CD4^+ T cells treated with C-232A. […] Area under the peak generated by western blot analysis of membrane-associated PKC isoforms after treatment and plotted using GraphPad software. AUC plots were used to generate EC50 values (D). (PNG)

[4] = system: classical isoforms PKC-α, PKC-β1, PKC-β2; experiment: as above; format: cell-based; settings: 1 hour
Method: as §1, §2

CD69 on CD4+ T cells = experiment: CD69 expression levels in rhesus blood (flow cytometry); format: in vivo, rhesus macaque
Method: CD69 protein expression levels in whole blood were measured using flow cytometry. Samples, collected in K2EDTA tubes, were surface stained with anti-human monoclonal antibodies against markers CD3 (UCHT1), CD4 (SK3), and activation marker CD69 (FN50) for 30 minutes at RT. Red blood cells were lysed and cells were fixed (BD Lyse/Fix buffer) according to the manufacturer’s instructions. All data were acquired on an LSR II (BD Biosciences) and were analyzed using FlowJo software.

rhesus macaques = experiment: In vivo monkey study: tolerability, clinical pathology, histopathology; design: species or system rhesus macaque
Method: (§3) Male rhesus macaque monkeys (young adult to adult) were sourced from the Covance stock colony for conduct of in vivo studies at Covance Laboratories Inc. (Madison, Wisconsin, USA). Monkeys were administered a single dose of vehicle control (n = 3), 0.03, 0.1, 0.3, or 1 mg/kg of C-232A (n = 1) by intravenous infusion over 30 minutes using a sentinel approach. An additional 2 male monkeys were administered 0.3 mg/kg C232A after it was determined that this was the maximum tolerated dose level. Blood samples were collected through 24 hours postdose. Samples for PK (for measurement of C-232A concentration) and cytokine analysis were processed to plasma and shipped to Gilead Sciences. Activation of CD4^+ T cells was assessed by measuring CD69 expression levels in whole blood by flow cytometry (Covance Laboratories). Samples for clinical pathology were analyzed at Covance Laboratories for hematology, coagulation, and clinical chemistry panels. At unscheduled necropsy (1 mg/kg C-232A), tissues were preserved in 10% neutral-buffered formalin, embedded in paraffin, and processed to slides for staining with hematoxylin and eosin. Tissues were then evaluated independently (Experimental Pathology Laboratories, Inc).

[5] = as above; design: species or system rhesus macaque; settings: male, rhesus monkey, in vivo; single IV infusion; read-out: maximum tolerated dose
Method: as §3

SMILES	cell viability [1]	HIV protein production (supernatant p24 and cellular p24 by HIV-Flow) [2]	PK plasma profile [3]	translocation of PKC-θ from cytoplasm to cell membrane (PKC-θ)	translocation of classical isoforms α, β1, β2 [4]	expression of CD69 on CD4+ T cells (CD69 on CD4+ T cells; 1 mg/kg, at peak) [%]	time of peak CD69 expression postdose (CD69 on CD4+ T cells; rhesus monkey, in vivo) [h]	circulating fibrinogen (rhesus macaques; 1 mg/kg)	coagulation times (rhesus macaques; 1 mg/kg)	histopathology (rhesus macaques; 1 mg/kg)	outcome (severe clinical signs) (rhesus macaques; 1 mg/kg, single IV infusion, 1 monkey)	tolerability (rhesus macaques; 0.03, 0.1, and 0.3 mg/kg, single IV infusion)	circulating platelet counts (rhesus macaques; higher doses)	mean platelet volume (rhesus macaques; higher doses) [fL]	MTD [5] [mg/kg]
Cc1ccc(C#Cc2ccc(C(=O)OCC3(CO)Cc4c(-c5ccccc5)ccnc4O3)cc2)cc1 (stereo not drawn) [C-233]	without impairing viability	activated production of viral protein													
Cc1ccc(C#Cc2ccc3oc(CC(C)(C)C(=O)OCC4(CO)CC(=CCC(CC(C)C)CC(C)C)C(=O)O4)cc3c2)cc1 (stereo not drawn) [C-232A]			dose-dependent C-232A PK plasma profiles	translocated PKC-θ from the cytoplasm to the cell membrane in a dose-dependent manner	did not translocate classical isoforms α, β1, or β2	59	4 to 8	decreased	prolonged	hemorrhage in the lung and adrenal gland	euthanized 8 hours postdose	well tolerated	< 100,000 platelets/µL	> 15	0.3
